From US11339156B2, “3-(1H-pyrazol-4-yl)pyridine allosteric modulators of the M4 muscarinic acetylcholine receptor” (Merck Sharp & Dohme Corp., priority 2017, dated 2022)
Like-named read-outs stand apart in the source and are kept apart here.

Molecular target: T1, human M4 muscarinic acetylcholine receptor (Homo sapiens, UniProt P08173)
T1 construct: expressed in transfected cells
T1 sequence (P08173 1-479): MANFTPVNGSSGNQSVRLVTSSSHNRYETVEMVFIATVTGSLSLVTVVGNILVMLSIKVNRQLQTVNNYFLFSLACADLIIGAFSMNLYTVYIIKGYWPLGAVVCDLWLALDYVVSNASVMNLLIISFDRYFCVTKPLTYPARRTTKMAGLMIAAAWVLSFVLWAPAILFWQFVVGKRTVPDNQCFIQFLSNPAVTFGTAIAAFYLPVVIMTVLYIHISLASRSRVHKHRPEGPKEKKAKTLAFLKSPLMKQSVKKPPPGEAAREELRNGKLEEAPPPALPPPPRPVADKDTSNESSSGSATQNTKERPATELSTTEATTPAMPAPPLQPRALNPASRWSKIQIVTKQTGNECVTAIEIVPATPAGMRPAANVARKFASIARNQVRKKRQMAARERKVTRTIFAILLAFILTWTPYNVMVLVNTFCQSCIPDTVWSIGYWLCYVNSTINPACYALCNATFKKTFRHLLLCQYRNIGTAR
Experiment: human FLIPR-based M4 PAM assay (CHO-K1 cells with human M4 receptor and Gαqi5, calcium dye fluorescence)
Assay type: cell-based
Outline: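 The FLIPR read recorded 4 min after compound was added across a concentration range, then 3.5 min after acetylcholine giving 20% of its maximal response, with an occasional extra EC70 addition. Cells were dye-loaded for about 1 h at 37 °C. Potency is the curve inflection point from a four-parameter logistic fit.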

[1] = inflection point of 4 parameter logistic fit, acetylcholine added at 20% of maximum response, read-out: M4PAM IP

Row | SMILES | EC50 [1] [nM] | EC50 (read-out: HuM4PAM) [nM]
1 | CC(C)CCn1cc(-c2ccc(Cl)nc2-c2ccc3c(c2)C(=O)N(Cc2ccccc2F)C3)cn1 [Example 113, 6-{6-chloro-3-[1-(3-methylbutyl)-1H-pyrazol-4-yl]pyridin-2-yl}-2-(2-fluorobenzyl)-2,3-dihydro-1H-isoindol-1-one] | 54 | 
2 | CC(C)CCn1cc(-c2ccc(Cl)nc2-c2ccc3c(c2)C(=O)N(Cc2ccc(O)cc2)C3)cn1 [Example 114, 6-{6-chloro-3-[1-(3-methylbutyl)-1H-pyrazol-4-yl]pyridin-2-yl}-2-(4-hydroxybenzyl)-2,3-dihydro-1H-isoindol-1-one] | 22.8 | 
3 | CN1Cc2ccc(-c3nc(Cl)ccc3-c3cnn(CC4CCCCC4)c3)cc2C1=O [Example 115, 6-{6-chloro-3-[1-(cyclohexylmethyl)-1H-pyrazol-4-yl]pyridin-2-yl}-2-methyl-2,3-dihydro-1H-isoindol-1-one] | 31.7 | 
4 | CC(C)CCn1cc(-c2cccnc2-c2ccc3c(c2)C(=O)N(C2CCC2)C3)cn1 [Example 116, 2-cyclobutyl-6-{3-[1-(3-methylbutyl)-1H-pyrazol-4-yl]pyridin-2-yl}-2,3-dihydro-1H-isoindol-1-one] | 84.6 | 
5 | CC(C)(C)Cn1cc(-c2ccc(C#N)nc2-c2ccn3c(Cl)cnc3c2)cn1 [Example 117, 6-(3-chloroimidazo[1,2-a]pyridin-7-yl)-5-(1-neopentyl-1H-pyrazol-4-yl)picolinonitrile] | 33.4 | 
6 | Cc1cn2ccc(-c3nc(C#N)ccc3-c3cnn(CC4(F)CCC4)c3)cc2n1 [Example 118, 5-(1-((1-fluorocyclobutyl)methyl)-1H-pyrazol-4-yl)-6-(2-methylimidazo[1,2-a]pyridin-7-yl)picolinonitrile] | 30.7 | 
7 | Cc1cn2ccc(-c3nc(C#N)ccc3-c3cnn(CCC(C)(C)F)c3)cc2n1 [Example 119, 5-[1-(3-fluoro-3-methylbutyl)-1H-pyrazol-4-yl]-6-(2-methylimidazo[1,2-a]pyridin-7-yl)pyridine-2-carbonitrile] | 55.9 | 
8 | Cc1nc2cc(-c3ncc(F)cc3-c3cnn(CCC(C)(C)F)c3)ccc2n1C [Example 120, 5-(5-fluoro-3-(1-(3-fluoro-3-methylbutyl)-1H-pyrazol-4-yl)pyridin-2-yl)-1,2-dimethyl-1H-benzo[d]imidazole] | 401 | 
9 | CC(C)(F)Cn1cc(-c2ccc(C#N)nc2-c2ccn3ccnc3c2)cn1 [Example 121, 5-(1-(2-fluoro-2-methylpropyl)-1H-pyrazol-4-yl)-6-(imidazo[1,2-a]pyridin-7-yl)picolinonitrile] |  | 107
10 | Cc1cn2ccc(-c3nc(C#N)ccc3-c3cnn(CC(C)(C)F)c3)cc2n1 [Example 122, 5-(1-(2-fluoro-2-methylpropyl)-1H-pyrazol-4-yl)-6-(2-methylimidazo[1,2-a]pyridin-7-yl)picolinonitrile] | 78.1 | 
11 | C#Cc1ccc(-c2cnn(CC(C)(C)C)c2)c(-c2ccn3cc(C)nc3c2)n1 [Example 123, 7-(6-ethynyl-3-(1-neopentyl-1H-pyrazol-4-yl)pyridin-2-yl)-2-methylimidazo[1,2-a]pyridine] | 62.3 | 
12 | N#Cc1ccc(-c2cnn(CC(F)C3CC3)c2)c(-c2ccn3ccnc3c2)n1 (centres unmarked) [Example 124, 5-(1-(2-cyclopropyl-2-fluoroethyl)-1H-pyrazol-4-yl)-6-(imidazo[1,2-a]pyridin-7-yl)picolinonitrile] | 60.5 | 
13 | Cc1cn2ccc(-c3nc(C#N)ccc3-c3cnn(CC(C)(O)C(F)(F)F)c3)cc2n1 (centres unmarked) [Example 125, 6-(2-methylimidazo[1,2-a]pyridin-7-yl)-5-(1-(3,3,3-trifluoro-2-hydroxy-2-methylpropyl)-1H-pyrazol-4-yl)picolinonitrile] | 161 | 
14 | Cc1cn2ccc(-c3nc(C#N)ccc3-c3cnn(CC(C)C(F)(F)F)c3)cc2n1 (centres unmarked) [Example 126, 6-(2-methylimidazo [1,2-a]pyridin-7-yl)-5-(1-(3,3,3-trifluoro-2-methylpropyl)-1H-pyrazol-4-yl)picolinonitrile] | 39.1 | 
15 | Cc1cn2ccc(-c3nc(C#N)ccc3-c3cnn(CC(C)(C)CO)c3)cc2n1 [Example 127, 5-(1-(3-hydroxy-2,2-dimethylpropyl)-1H-pyrazol-4-yl)-6-(2-methylimidazo[1,2-a]pyridin-7-yl)picolinonitrile] | 139 | 
16 | Cc1nc2cc(-c3nc(C#N)ccc3-c3cnn(C[C@]4(F)C[C@@H](F)C4)c3)ccc2n1C [Example 128, 5-(1-(((1s,3s)-1,3-difluorocyclobutyl)methyl)-1H-pyrazol-4-yl)-6-(1,2-dimethyl-1H-benzo[d]imidazol-5-yl)picolinonitrile] | 48 | 
17 | Cc1nc2cc(-c3nc(C#N)ccc3-c3cnn(C[C@]4(F)C[C@H](F)C4)c3)ccc2n1C [Example 129, 5-(1-(((1r,3r)-1,3-difluorocyclobutyl)methyl)-1H-pyrazol-4-yl)-6-(1,2-dimethyl-1H-benzo[d]imidazol-5-yl)picolinonitrile] | 114 | 
18 | Cc1nc2cc(-c3ncccc3-c3cnn(CC4(F)CC(F)(F)C4)c3)ccn2n1 [Example 130, 2-methyl-7-(3-(1-((1,3,3-trifluorocyclobutyl)methyl)-1H-pyrazol-4-yl)pyridin-2-yl)-[1,2,4]triazolo[1,5-a]pyridine] | 381 | 
19 | Cc1nc(-c2ccc3c(c2)nc(C)n3C)c(-c2cnn(CC(C)(C)C(F)(F)F)c2)cc1F [Example 131, 5-(5-fluoro-6-methyl-3-(1-(3,3,3-trifluoro-2,2-dimethylpropyl)-1H-pyrazol-4-yl)pyridin-2-yl)-1,2-dimethyl-1H-benzo[d]imidazole] | 77.3 | 
20 | CC(C)(Cn1cc(-c2ccc(C(N)=O)nc2-c2ccn3ccnc3c2)cn1)C(F)(F)F [Example 132, 6-(imidazo[1,2-a]pyridin-7-yl)-5-(1-(3,3,3-trifluoro-2,2-dimethylpropyl)-1H-pyrazol-4-yl)picolinamide] | 249 | 
21 | CC1(Cn2cc(-c3ccc(C#N)nc3-c3ccn4ccnc4c3)cn2)CC1(F)F (centres unmarked) [Example 134, 5-(1-((2,2-difluoro-1-methylcyclopropyl)methyl)-1H-pyrazol-4-yl)-6-(imidazo[1,2-a]pyridin-7-yl)picolinonitrile] | 57.5 | 
22 | CC(C)(C)Cn1ncc(-c2ccc(C#N)nc2-c2ccn3ccnc3c2)c1F [Example 135, 5-[1-(2,2-dimethylpropyl)-5-fluoro-1H-pyrazol-4-yl]-6-imidazo[1,2-a]pyridin-7-ylpyridine-2-carbonitrile] | 36.5 | 
23 | Cc1ccc(-c2cnn(CCC(C)C)c2C#N)c(-c2ccn3ccnc3c2)n1 [Example 136, 4-(2-imidazo[1,2-a]pyridin-7-yl-6-methylpyridin-3-yl)-1-(3-methylbutyl)-1H-pyrazole-5-carbonitrile] | 741 | 
24 | CSc1cnc(-c2ccc3c(c2)C(=O)NC3)c(-c2cnn(CCC(C)C)c2)c1 [Example 137, 6-(3-(1-isopentyl-1H-pyrazol-4-yl)-5-(methylthio)pyridin-2-yl)isoindolin-1-one] | 345 | 
25 | Cc1cc(-c2cnn(CC3(C(F)(F)F)CC3)c2)c(-c2ccn3ccnc3c2)nc1C#N [Example 138, 6-imidazo[1,2-a]pyridin-7-yl-3-methyl-5-(1-{[1-(trifluoromethyl)cyclopropyl]methyl}-1H-pyrazol-4-yl)pyridine-2-carbonitrile] | 59.9 | 
26 | Cc1cc(-c2cnn(CC3(C(F)(F)F)CC3)c2)c(-c2ccn3ccnc3c2)nc1C [Example 139, 7-[5,6-dimethyl-3-(1-{[1-(trifluoromethyl)cyclopropyl]methyl}-1H-pyrazol-4-yl)pyridin-2-yl]imidazo[1,2-a]pyridine] | 162 | 
